Results taken from US5712263A, “Steroid derivatives” (Taisho Pharmaceutical Co., Ltd., priority 1993, dated 1998).
Converted amounts (≈) assume the structure as drawn.

Test system: KB cells
Assay: Growth Inhibition Action on KB cell (in vitro)
Type: cell-based
Details: Homo sapiens, 72 hours incubation, MTT absorbance, final DMSO 0.5%, read-out: IC50 (concentration of 50% growth inhibition) on KB cells
Method: Experiment: Growth Inhibition Action on KB cell (in vitro)
1×10^3 of KB cells/0.1 ml of a cell suspension in MEM medium containing 10% fetal bovine serum was placed in each well of a plate with 96 flat bottom wells, and incubated for 24 hours. This was dissolved in dimethylsulfoxide, and 100 μl of a solution (final concentration of dimethylsulfoxide: 0.5%) of a test compound diluted with the medium was added thereto, followed by incubation for 72 hours. After incubation, 4,5-dimethylthiazol-2-yl-2,5-diphenyltetrazolium bromide reagent (a color reagent) was added, and the mixture was further incubated for 4 hours.
100 μl of the medium (final concentration of dimethylsulfoxide:0.5%) was added as a control, and incubated in a similar manner. After incubation, the medium was removed, and the cells were dissolved in 150 μl of dimethylsulfoxide and the absorbance was determined. The ratio of the absorbance of the group treated with the test compound to that of the control group was determined, and the concentration of 50% growth inhibition (IC50) was calculated.

CC(C)C[C@@H](O)[C@@]1([C@H]2CC[C@H]3[C@@H]4CC[C@H]5CC(=O)CC[C@]5(C)[C@H]4C[C@@H](O)[C@]23C)CO1 [Compound (12a)]
IC50: 0.0965 µg/mL (≈ 0.231 µM)
